# Test results as given in paper PMC8092108, “Mycophenolate suppresses inflammation by inhibiting prostaglandin synthases: a study of molecular and experimental drug repurposing” (PeerJ, 2021).
# “And” between values parts separate entries of the source, which are not always exact repeats. Equal values may be shown once.
# Tests used:
# [1] = cited from earlier work
# [2] = tested on: carrageenan-induced paw edema; assay: Carrageenan-induced rat paw edema test; assay type: in vivo; parameters: key to Tukey's test Summary: Significant (s); non-significant (ns); settings: for Tukey's test Significant? / Tukey's test Summary: mean paw size 3–5 h; for Rat paw size: individual rats 1-7
# Protocol: The in vivo assay was performed by the rat paw edema inhibition test as previously described ([Morris, 2003]; [Winter, Risley & Nuss, 1962]). Forty-nine male adult albino rats weighing […] were obtained from the Animal Breeding Center at the College of Veterinary Medicine, King Faisal University, and were randomly divided into seven groups (n = 7/group). The animal groups included the nontreated control group, carrageenan group, and five groups receiving carrageenan and treated with either indomethacin, celecoxib, or MMF at three doses (12.5, 25, and 50 mg/kg). All rats were allowed free access to food and water. All cages were kept in controlled rooms at 25 °C and exposed to a 12-h light/dark cycle. MMF and two reference drugs, indomethacin and celecoxib, were suspended in 1% NaCMC in normal saline. A 1% carrageenan solution in normal saline was injected into the subplantar area of the right hind paw of rats. One hour before injection of carrageenan, rats were given either indomethacin or celecoxib at a dose rate of 10 mg/kg or MMF at three dose levels of 12.5, 25, and 50 mg/kg by oral administration. […] The measurements were blind to avoid measurement bias. The King Faisal University Ethics Committee (approval no. KFU-REC/2020-10-11) approved all animal experiments. Since no samples were taken from rats, there were no anesthesia procedures. The size of the hind paw was only measured in non-anesthetized rats. At the end of the experiment, all rats were euthanized according to the regulations of the King Faisal University Ethics Committee by an overdose of pentobarbital (200 mg/kg IP) and decapitation. The effect of MMF at different doses on relieving rat paw edema was compared with the control and standard NSAID-treated groups. Significant differences were determined by one-way analysis of variance (ANOVA) with Tukey’s post hoc test. All steps were implemented using GraphPad prism software (GraphPad Software, La Jolla, CA, USA).
# COX-1 = molecular target: T1, COX-1 (Ovis aries, UniProt P05979); assay: COX inhibitor screening assay, COX-1; assay type: biochemical
# T1 construct: purchased
# T1 sequence (P05979 25-600): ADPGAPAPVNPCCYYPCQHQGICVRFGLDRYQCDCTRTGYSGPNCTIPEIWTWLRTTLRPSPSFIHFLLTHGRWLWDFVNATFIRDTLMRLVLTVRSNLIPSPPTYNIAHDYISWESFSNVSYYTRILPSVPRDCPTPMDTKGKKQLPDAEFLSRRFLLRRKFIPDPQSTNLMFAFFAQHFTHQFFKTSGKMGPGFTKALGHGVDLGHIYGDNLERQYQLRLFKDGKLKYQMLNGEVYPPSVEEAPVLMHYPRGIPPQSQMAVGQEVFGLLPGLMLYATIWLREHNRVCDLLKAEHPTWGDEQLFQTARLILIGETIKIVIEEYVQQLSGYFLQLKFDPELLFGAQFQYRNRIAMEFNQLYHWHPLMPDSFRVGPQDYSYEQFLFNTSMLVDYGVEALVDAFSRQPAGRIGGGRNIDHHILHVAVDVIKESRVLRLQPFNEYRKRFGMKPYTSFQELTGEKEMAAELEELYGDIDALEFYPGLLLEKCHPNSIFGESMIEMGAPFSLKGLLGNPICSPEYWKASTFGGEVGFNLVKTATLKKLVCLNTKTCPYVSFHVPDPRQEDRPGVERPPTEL
# Protocol: The inhibitory effects of the drugs MMF and MPA on COX-1 and COX-2 were measured using the COX inhibitor screening assay kit and LOX inhibitor screening kit. […] Briefly, the reaction buffer (Tris–HCl buffer, pH 8.0) containing 5 mM EDTA, 2 mM phenol, and 1 µM hematin was measured into test tubes. The test drugs were dissolved in dimethyl sulfoxide and added to the tubes to final concentrations of […]. COX-1 or COX-2 was added to the test tubes and preincubated for 10 min at 37 °C. Arachidonic acid was then added, and the tubes were incubated for 2 min at 37 °C. The enzyme immunoassay was used to measure the concentration of the product prostaglandin F2α (PGF2α). The estimated values were determined after comparison to the predetermined standard curve. The IC50 was determined after three different experiments. The selectivity index was calculated from Eq. (1):
# (1) Selectivity index=IC50COX−1/IC50COX−2
# [3] = tested on: atopic dermatitis and vitiligo; settings: cited from earlier work
# [4] = Indomethacin vs. MMF 12.5 mg/kg
compound,measurement,setting,value
COc1c(C)c2c(c(O)c1C/C=C(\C)CCC(=O)OCCN1CCOCC1)C(=O)OC2 [Mycophenolate mofetil],Maximal serum concentration (Cmax),"[1]; after 1–2 g oral doses, ref Ferreira et al., 2020",18000 to 20000 ng/mL
same,Conversion to MPA by liver carboxylesterases 1 and 2,"[1]; after oral intake, ref Lamba et al., 2014",completely converted to MPA
same,"Rat paw size at 3, 4 and 5 h after treatment","[2]; 12.5, 25, 50 mg/kg MMF",dose-dependent decrease in edema
same,Rat paw edema 2–5 h after drug administration,"[2]; 12.5, 25 and 50 mg/kg MMF oral",significant decrease
same,Tukey's test Significant?,[2]; Carrageenan vs. MMF 12.5 mg/kg,Yes
same,Tukey's test Summary,[2]; Carrageenan vs. MMF 12.5 mg/kg,s
same,Tukey's test Significant?,[2]; Carrageenan vs. MMF 25 mg/kg,Yes
same,Tukey's test Summary,[2]; Carrageenan vs. MMF 25 mg/kg,s
same,Tukey's test Significant?,[2]; Carrageenan vs. MMF 50 mg/kg,Yes
same,Tukey's test Summary,[2]; Carrageenan vs. MMF 50 mg/kg,s
same,Tukey's test Significant?,[2]; Celecoxib vs. MMF 12.5 mg/kg,No
same,Tukey's test Summary,[2]; Celecoxib vs. MMF 12.5 mg/kg,ns
same,Tukey's test Significant?,[2]; Celecoxib vs. MMF 25 mg/kg,No
same,Tukey's test Summary,[2]; Celecoxib vs. MMF 25 mg/kg,ns
same,Tukey's test Significant?,[2]; Celecoxib vs. MMF 50 mg/kg,No
same,Tukey's test Summary,[2]; Celecoxib vs. MMF 50 mg/kg,ns
same,Tukey's test Significant?,[2]; [4],No
same,Tukey's test Summary,[2]; [4],ns
same,Tukey's test Significant?,[2]; Indomethacin vs. MMF 25 mg/kg,No
same,Tukey's test Summary,[2]; Indomethacin vs. MMF 25 mg/kg,ns
same,Rat paw size,"[2]; MMF 12.5 mg Kg oral, Time (h) 1",0.75 cm (3×) and 0.73 cm (3×) and 0.7 cm
same,Rat paw size,"[2]; MMF 12.5 mg Kg oral, Time (h) 2",0.75 cm (3×) and 0.76 cm (3×) and 0.8 cm
same,Rat paw size,"[2]; MMF 12.5 mg Kg oral, Time (h) 3",0.75 cm and 0.8 cm
same,Rat paw size,"[2]; MMF 25 mg/Kg oral, Time (h) 1",0.74 cm (2×) and 0.75 cm (4×) and 0.77 cm
same,Rat paw size,"[2]; MMF 25 mg/Kg oral, Time (h) 2",0.7 cm (3×) and 0.65 cm and 0.71 cm and 0.75 cm and 0.69 cm
same,Rat paw size,"[2]; MMF 25 mg/Kg oral, Time (h) 3",0.59 cm and 0.6 cm and 0.55 cm (2×) and 0.5 cm and 0.65 cm and 0.57 cm
same,Rat paw size,"[2]; MMF 25 mg/Kg oral, Time (h) 4",0.46 cm and 0.5 cm (2×) and 0.45 cm (2×) and 0.47 cm and 0.48 cm
same,Rat paw size,"[2]; MMF 25 mg/Kg oral, Time (h) 5",0.45 cm (5×) and 0.5 cm and 0.4 cm
same,Rat paw size,"[2]; MMF 25 mg/Kg oral, Time (h) 6",0.57 cm and 0.6 cm (2×) and 0.5 cm and 0.65 cm and 0.55 cm and 0.54 cm
same,Rat paw size,"[2]; MMF 50mg/kg oral, Time (h) 1",0.75 cm
same,Rat paw size,"[2]; MMF 50mg/kg oral, Time (h) 2",0.75 cm and 0.7 cm (3×) and 0.65 cm and 0.66 cm and 0.68 cm
same,Rat paw size,"[2]; MMF 50mg/kg oral, Time (h) 3",0.65 cm (2×) and 0.6 cm (2×) and 0.55 cm and 0.62 cm and 0.58 cm
same,Rat paw size,"[2]; MMF 50mg/kg oral, Time (h) 4",0.55 cm (2×) and 0.5 cm (2×) and 0.52 cm and 0.53 cm and 0.51 cm
same,Rat paw size,"[2]; MMF 50mg/kg oral, Time (h) 5",0.45 cm (3×) and 0.5 cm and 0.46 cm (3×)
same,Rat paw size,"[2]; MMF 50mg/kg oral, Time (h) 6",0.6 cm (3×) and 0.5 cm and 0.65 cm and 0.56 cm and 0.58 cm
same,Rat paw edema after treatment,"[2]; MMF 12.5–50 mg/kg, indomethacin or celecoxib 10 mg/kg oral",significantly relieved
same,Most effective dose in the rat paw edema test,[2]; oral,50 mg/kg
same,IC50,COX-1,5.53 µM
same,Treatment of atopic dermatitis,"[3]; oral 1–2 g daily for 12 weeks, ref Grundmann-Kollmann et al., 2001, Neuber et al., 2000",highly effective
same,Tolerability of high topical concentration,"[3]; topical 15% MMF, ref Handjani et al., 2017",well tolerated
same,Treatment of vitiligo,"[3]; topical application of 15% MMF, ref Handjani et al., 2017",highly effective
